Test results from patent US11292796B2 (SIGNAL PHARMACEUTICALS, LLC, priority 2008, dated 2022).

Molecular target: T1, mTOR (Homo sapiens, UniProt P42345)
T1 construct: purchased Invitrogen PR8683A
Assay: mTOR HTR-FRET assay
Type: biochemical
Settings: read-out: Act. Level (IC50 in mTor HTR-FRET assay)
In short: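 Test compounds, taken from 10 mM DMSO stocks and diluted, were mixed with mTOR enzyme (0.200 μg/mL) in Tris buffer pH 7.4 with 100 mM NaCl, 0.1% Tween-20 and 1 mM DTT. ATP/substrate addition initiated the reaction, alongside compound-free controls.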

T1 sequence (P42345 1360-2549 limits assumed): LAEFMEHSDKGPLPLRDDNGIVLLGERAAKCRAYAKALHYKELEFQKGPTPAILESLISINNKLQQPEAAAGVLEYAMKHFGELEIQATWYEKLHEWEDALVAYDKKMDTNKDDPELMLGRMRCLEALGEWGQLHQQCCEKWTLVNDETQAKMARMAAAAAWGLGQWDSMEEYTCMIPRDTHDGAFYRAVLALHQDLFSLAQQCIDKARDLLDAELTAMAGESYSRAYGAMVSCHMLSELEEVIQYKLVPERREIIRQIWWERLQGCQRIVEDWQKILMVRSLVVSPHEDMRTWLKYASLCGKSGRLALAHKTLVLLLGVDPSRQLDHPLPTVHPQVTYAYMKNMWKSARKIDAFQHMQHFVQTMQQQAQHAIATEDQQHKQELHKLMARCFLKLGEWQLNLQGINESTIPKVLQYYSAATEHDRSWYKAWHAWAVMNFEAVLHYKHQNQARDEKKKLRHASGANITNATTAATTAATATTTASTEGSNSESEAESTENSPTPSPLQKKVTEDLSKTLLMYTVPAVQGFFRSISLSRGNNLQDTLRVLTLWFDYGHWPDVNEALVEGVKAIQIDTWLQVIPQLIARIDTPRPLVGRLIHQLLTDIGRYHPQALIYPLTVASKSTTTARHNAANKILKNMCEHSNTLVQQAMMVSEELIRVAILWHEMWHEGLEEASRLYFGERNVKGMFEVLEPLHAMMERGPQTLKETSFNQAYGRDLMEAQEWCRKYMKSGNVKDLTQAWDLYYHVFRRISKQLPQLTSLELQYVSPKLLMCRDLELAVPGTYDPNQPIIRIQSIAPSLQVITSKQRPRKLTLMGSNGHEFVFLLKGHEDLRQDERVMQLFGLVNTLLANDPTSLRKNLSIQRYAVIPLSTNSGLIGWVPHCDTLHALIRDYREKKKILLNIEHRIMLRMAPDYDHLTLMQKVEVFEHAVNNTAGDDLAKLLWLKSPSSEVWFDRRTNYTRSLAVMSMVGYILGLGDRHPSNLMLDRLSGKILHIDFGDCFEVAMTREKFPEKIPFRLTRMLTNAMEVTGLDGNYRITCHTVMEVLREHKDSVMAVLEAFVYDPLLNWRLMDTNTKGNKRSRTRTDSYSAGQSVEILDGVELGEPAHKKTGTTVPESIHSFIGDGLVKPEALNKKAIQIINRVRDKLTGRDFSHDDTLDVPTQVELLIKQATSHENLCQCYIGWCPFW

| SMILES | IC50 [nM] |
| --- | --- |
| CO[C@@H]1CC[C@H](N2CC(=O)Nc3ncc(-c4ccc(-c5nnc[nH]5)nc4C)nc32)C1 [Example 39, 4-((1S,3R)-3-methoxycyclopentyl)-6-(2-methyl-6-(4H-1,2,4-triazol-3-yl)pyridin-3-yl)-3,4-dihydropyrazino[2,3-b]pyrazin-2(1H)-one] | 0.005 to 250 |
| O=C1CNc2ncc(-c3cccnc3)nc2N1CCC1CCOCC1 [Example 187, 7-(pyridin-3-yl)-1-(2-(tetrahydro-2H-pyran-4-yl)ethyl)-3,4-dihydropyrazino[2,3-b]pyrazin-2(1H)-one] | 500 to 1000 |
| CC(C)(O)c1ccc(-c2cnc3c(n2)N(CCC2CCOCC2)C(C)(C)C(=O)N3)cn1 [Example 85, 6-(6-(2-hydroxypropan-2-yl)pyridin-3-yl)-3,3-dimethyl-4-(2-(tetrahydro-2H-pyran-4-yl)ethyl)-3,4-dihydropyrazino[2,3-b]pyrazin-2(1H)-one] | 500 to 1000 |
| Cc1nc(-c2nnc[nH]2)ccc1-c1cnc2c(n1)N(CC1CCOCC1)CC(=O)N2 [Example 93, 6-(2-methyl-6-(4H-1,2,4-triazol-3-yl)pyridin-3-yl)-4-((tetrahydro-2H-pyran-4-yl)methyl)-3,4-dihydropyrazino[2,3-b]pyrazin-2(1H)-one] | 250 to 500 |
| Cc1cc(-c2nc[nH]n2)c(F)cc1-c1cnc2c(n1)N([C@H]1CC[C@H](O)CC1)C(=O)CN2 [Example 174, 7-(5-fluoro-2-methyl-4-(1H-1,2,4-triazol-3-yl)phenyl)-1-(trans-4-hydroxycyclohexyl)-3,4-dihydropyrazino[2,3-b]pyrazin-2(1H)-one] | 0.005 to 250 |
| CNc1nc2c(C)cc(-c3cnc4c(n3)N(CCC3CCOCC3)CC(=O)N4)cc2[nH]1 [Example 139, 6-(4-methyl-2-(methylamino)-1H-benzo[d]imidazol-6-yl)-4-(2-(tetrahydro-2H-pyran-4-yl)ethyl)-3,4-dihydropyrazino[2,3-b]pyrazin-2(1H)-one] | 0.005 to 250 |
| CCN1CC(=O)Nc2ncc(-c3cc(F)c(-c4nc[nH]n4)cc3C)nc21 [Example 26, 4-ethyl-6-(5-fluoro-2-methyl-4-(1H-1,2,4-triazol-3-yl)phenyl)-3,4-dihydropyrazino[2,3-b]pyrazin-2(1H)-one] | 0.005 to 250 |
| CO[C@H]1CC[C@@H](CN2C(=O)CNc3ncc(-c4cc(F)c(-c5nc[nH]n5)cc4C)nc32)CC1 [Example 153, 7-(5-fluoro-2-methyl-4-(1H-1,2,4-triazol-3-yl)phenyl)-1-((cis-4-methoxycyclohexyl)methyl)-3,4-dihydropyrazino[2,3-b]pyrazin-2(1H)-one] | 0.005 to 250 |
| Cc1cc(-c2nnc[nH]2)ccc1-c1cnc2c(n1)N(CC1CCOCC1)C(C)(C)C(=O)N2 [Example 76, 3,3-dimethyl-6-(2-methyl-4-(4H-1,2,4-triazol-3-yl)phenyl)-4-((tetrahydro-2H-pyran-4-yl)methyl)-3,4-dihydropyrazino[2,3-b]pyrazin-2(1H)-one] | 0.005 to 250 |
| COCCN1C(=O)CNc2ncc(-c3cnc4[nH]ccc4c3)nc21 [Example 192, 1-(2-methoxyethyl)-7-(1H-pyrrolo[2,3-b]pyridin-5-yl)-3,4-dihydropyrazino[2,3-b]pyrazin-2(1H)-one] | 0.005 to 250 |
| COCCN1CC(=O)Nc2ncc(-c3ccc(-c4nnc[nH]4)cc3)nc21 [Example 144, 6-(4-(4H-1,2,4-triazol-3-yl)phenyl)-4-(2-methoxyethyl)-3,4-dihydropyrazino[2,3-b]pyrazin-2(1H)-one] | 0.005 to 250 |
| Cc1cc(C(N)=O)ncc1-c1cnc2c(n1)N(C(C)C)C(=O)CN2 [Example 180, 5-(8-isopropyl-7-oxo-5,6,7,8-tetrahydropyrazino[2,3-b]pyrazin-2-yl)-4-methylpicolinamide] | 0.005 to 250 |
| CO[C@H]1CC[C@H](N2CC(=O)Nc3ncc(-c4ccc(-c5nc[nH]n5)nc4)nc32)CC1 [Example 12] | 0.005 to 250 |
| O=C1Nc2ncc(-c3ccc(-c4nnc[nH]4)cc3)nc2N2CCOCC12 (stereo not shown) [Example 119, 9-(4-(4H-1,2,4-triazol-3-yl)phenyl)-6,11,4a-trihydromorpholino[4,3-e]pyrazino[2,3-b]pyrazin-5-one] | 0.005 to 250 |
| CC(C)(O)c1ccc(-c2cnc3c(n2)N(CC2CCCC2)C(=O)CN3)cn1 [Example 251, 1-(cyclopentylmethyl)-7-(6-(2-hydroxypropan-2-yl)pyridin-3-yl)-3,4-dihydropyrazino[2,3-b]pyrazin-2(1H)-one] | 500 to 1000 |
| CCN1C(=O)CNc2ncc(-c3ccc(-c4nc[nH]n4)nc3)nc21 [Example 164, 7-(6-(1H-1,2,4-triazol-3-yl)pyridin-3-yl)-1-ethyl-3,4-dihydropyrazino[2,3-b]pyrazin-2(1H)-one] | 0.005 to 250 |
| O=C1CNc2ncc(-c3cnc4nc[nH]c4c3)nc2N1CCC1CCOCC1 [Example 218, 7-(1H-imidazo[4,5-b]pyridin-6-yl)-1-(2-(tetrahydro-2H-pyran-4-yl)ethyl)-3,4-dihydropyrazino[2,3-b]pyrazin-2(1H)-one] | 1000 to 10000 |

| SMILES | IC50 [nM] |
| --- | --- |
| Cc1nc(-c2nc[nH]n2)ccc1-c1cnc2c(n1)N(CCO)C(=O)CN2 [Example 274, 1-(2-hydroxyethyl)-7-(2-methyl-6-(1H-1,2,4-triazol-3-yl)pyridin-3-yl)-3,4-dihydropyrazino[2,3-b]pyrazin-2(1H)-one] | 0.005 to 250 |
| O=C1CN(C[C@H]2CCCO2)c2nc(-c3ccc(-c4nnc[nH]4)cc3)cnc2N1 [Example 67, (R)-6-(4-(4H-1,2,4-triazol-3-yl)phenyl)-4-((tetrahydrofuran-2-yl)methyl)-3,4-dihydropyrazino[2,3-b]pyrazin-2(1H)-one] | 0.005 to 250 |
| O=C1CN(CCC2CCOCC2)c2nc(-c3cccc(-c4ncn[nH]4)c3)cnc2N1 [Example 31, 6-(3-(1H-1,2,4-triazol-5-yl)phenyl)-4-(2-(tetrahydro-2H-pyran-4-yl)ethyl)-3,4-dihydropyrazino[2,3-b]pyrazin-2(1H)-one] | 1000 to 10000 |
| CC(C)(O)c1ccc(-c2cnc3c(n2)N(C[C@H]2CCCO2)CC(=O)N3)cn1 [Example 116, (R)-6-(6-(2-hydroxypropan-2-yl)pyridin-3-yl)-4-((tetrahydrofuran-2-yl)methyl)-3,4-dihydropyrazino[2,3-b]pyrazin-2(1H)-one] | 500 to 1000 |
| Cc1cc(-c2nnc[nH]2)ccc1-c1cnc2c(n1)N1CCNCC1C(=O)N2 (stereo not shown) [Example 97, 9-(4-(4H-1,2,4-triazol-3-yl)-2-methylphenyl)-6,11,4a-trihydropiperazino[1,2-e]pyrazino[2,3-b]pyrazin-5-one] | 0.005 to 250 |
| CO[C@H]1CC[C@H](N2C(=O)CNc3ncc(-c4ccc(-c5nc[nH]n5)nc4)nc32)CC1 [Example 171, 7-(6-(1H-1,2,4-triazol-3-yl)pyridin-3-yl)-1-(trans-4-methoxycyclohexyl)-3,4-dihydropyrazino[2,3-b]pyrazin-2(1H)-one] | 0.005 to 250 |
| CO[C@@H]1CC[C@H](N2CC(=O)Nc3ncc(-c4ccc(C(C)(C)O)nc4)nc32)C1 [Example 52, 6-(6-(2-hydroxypropan-2-yl)pyridin-3-yl)-4-((1S,3R)-3-methoxycyclopentyl)-3,4-dihydropyrazino[2,3-b]pyrazin-2(1H)-one] | 0.005 to 250 |
| Cc1nc(-c2nnc[nH]2)ccc1-c1cnc2c(n1)N(CC1CCCC1)CC(=O)N2 [Example 99, 4-(cyclopentylmethyl)-6-(2-methyl-6-(4H-1,2,4-triazol-3-yl)pyridin-3-yl)-3,4-dihydropyrazino[2,3-b]pyrazin-2(1H)-one] | 0.005 to 250 |
| O=C1CN(Cc2cccc(C(F)(F)F)c2)c2nc(-c3ccc(-c4nnc[nH]4)cc3)cnc2N1 [Example 145, 6-(4-(4H-1,2,4-triazol-3-yl)phenyl)-4-(3-(trifluoromethyl)benzyl)-3,4-dihydropyrazino[2,3-b]pyrazin-2(1H)-one] | 0.005 to 250 |
| CC(C)N1C(=O)CNc2ncc(-c3ccc(-c4nc[nH]n4)nc3)nc21 [Example 172, 7-(6-(1H-1,2,4-triazol-3-yl)pyridin-3-yl)-1-isopropyl-3,4-dihydropyrazino[2,3-b]pyrazin-2(1H)-one] | 0.005 to 250 |
| CO[C@H]1CC[C@H](CN2CC(=O)Nc3ncc(-c4ccc(C(C)(C)O)nc4)nc32)C1 [Example 53, 6-(6-(2-hydroxypropan-2-yl)pyridin-3-yl)-4-(((1S,3S)-3-methoxycyclopentyl)methyl)-3,4-dihydropyrazino[2,3-b]pyrazin-2(1H)-one] | 0.005 to 250 |
| O=C1CNc2ncc(-c3ccc(-c4nc[nH]n4)nc3)nc2N1C[C@H]1CC[C@@H](O)CC1 [Example 169, 7-(6-(1H-1,2,4-triazol-3-yl)pyridin-3-yl)-1-((cis-4-hydroxycyclohexyl)methyl)-3,4-dihydropyrazino[2,3-b]pyrazin-2(1H)-one] | 0.005 to 250 |
| CO[C@H]1C[C@H]2C(=O)Nc3ncc(-c4ccc(-c5nnc[nH]5)cc4C)nc3N2C1 [Example 113, 8-(4-(4H-1,2,4-triazol-3-yl)-2-methylphenyl)(2S,3aS)-2-methoxy-5,10,3a-trihydropyrazino[2,3-b]pyrrolidino[1,2-e]pyrazin-4-one] | 250 to 500 |
| O=C1CNc2ncc(-c3ccnc4[nH]ccc34)nc2N1CCC1CCOCC1 [Example 157, 7-(1H-pyrrolo[2,3-b]pyridin-4-yl)-1-(2-(tetrahydro-2H-pyran-4-yl)ethyl)-3,4-dihydropyrazino[2,3-b]pyrazin-2(1H)-one] | 0.005 to 250 |
| COCCN1C(=O)CNc2ncc(-c3cnc(-c4nc[nH]n4)cc3C)nc21 [Example 240, 1-(2-methoxyethyl)-7-(4-methyl-6-(1H-1,2,4-triazol-3-yl)pyridin-3-yl)-3,4-dihydropyrazino[2,3-b]pyrazin-2(1H)-one] | 0.005 to 250 |
| CC(C)(O)c1ccc(-c2cnc3c(n2)N([C@H]2CCOC2)CC(=O)N3)cn1 [Example 130, (S)-6-(6-(2-hydroxypropan-2-yl)pyridin-3-yl)-4-(tetrahydrofuran-3-yl)-3,4-dihydropyrazino[2,3-b]pyrazin-2(1H)-one] | 500 to 1000 |
| Cc1cc(-c2nc[nH]n2)c(F)cc1-c1cnc2c(n1)N(C(C)C)CC(=O)N2 [Example 25, 6-(5-fluoro-2-methyl-4-(1H-1,2,4-triazol-3-yl)phenyl)-4-isopropyl-3,4-dihydropyrazino[2,3-b]pyrazin-2(1H)-one] | 0.005 to 250 |
